Results from patent US9840464B2, “IAP binding compounds” (TetraLogic Birinapant UK Ltd., priority 2004, dated 2017).

target: XIAP-BIR3 (Homo sapiens, UniProt P98170); experiment: XIAP BIR3 fluorescence polarization binding assay (competition with AbuRPF-K(5-Fam)-NH2); settings: 5 nM AbuRPF-K(5-Fam)-NH2, 40 nM XIAP-BIR3, pH 7.5; Kd calculated from measured IC50; read-out: KD Range
Procedure: Binding constants (Kd) were measured using fluorescence polarization as described by Zaneta Nikolovska-Coleska, Renxiao Wang, Xueliang Fang, Hongguang Pan, York Tomita, Peng Li, Peter P. Roller, Krzysztof Krajewski, Naoyuki Saito, Jeanne Stuckey and Shaomeng Wang, in “Development and Optimization of a Binding Assay for the XIAP BIR3 Domain Using Fluorescence Polarization”, Analytical Biochemistry 2004, 332, 261-273). Briefly, test IAP binding compounds at various concentrations for binding measurements were mixed with 5 nM fluorescently labeled peptide (AbuRPF-K(5-Fam)-NH2) and 40 nM of XIAP-BIR3 for 15 minutes at room temperature in 100 μL of 0.1M Potassium Phosphate buffer, pH 7.5 containing 100 μg/ml bovine γ-globulin. Following incubation, the polarization values (mP) were measured on a Victor^2V using a 485 nm excitation filter and a 520 nm emission filter. IC50 values were determined from the plot using nonlinear least-squares analysis using GraphPad Prism. The Kd values of competitive inhibitors were calculated using the equation described by Zaneta Nikolovska-Coleska et al. based upon the measured IC50 values, the Kd value of the probe and XIAP BIR3 complex, and the concentrations of the protein and probe in the competition assay. In various examples of IAP binding or IAP binding cargo molecules ranges for Kd values: Group A: Kd<0.1 μM; Group B: Kd=0.1-1 μM; Group C: Kd=1-10 μM; Group D: Kd>10 μM.

Chain of XIAP-BIR3 (P98170 241-356 limits assumed): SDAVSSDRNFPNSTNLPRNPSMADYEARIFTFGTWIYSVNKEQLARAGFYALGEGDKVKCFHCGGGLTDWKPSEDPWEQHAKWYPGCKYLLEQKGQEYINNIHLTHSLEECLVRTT

Kd [µM] | SMILES
0.1 to 1 | CNC(C)C(=O)NC(C(=O)N1CCCC1Cc1cn(CCOCCOCCOC)c2cc(F)ccc12)C1CCCCC1 (stereo not drawn) [Entry 16-109, N-{1-Cyclohexyl-2-[2-(6-fluoro-1-{2-[2-(2-methoxy-ethoxy)-ethoxy]-ethyl}-1H-indol-3-ylmethyl)-pyrrolidin-1-yl]-2-oxo-ethyl}-2-methylamino-propionamide]
0.1 to 1 | CNC(C)C(=O)NC(C(=O)N1CCCC1Cc1c[nH]c2cc(F)ccc12)C1CCCCC1 (stereo not drawn) [Entry 14-104]
< 0.1 | CNC(C)C(=O)NC(C(=O)N1CCCC1Cc1c(Br)n(CCOCCOCCO)c2cc(F)ccc12)C(C)(C)C (stereo not drawn) [Entry 16-112]
0.1 to 1 | CC#CCn1cc(CC2CCCN2C(=O)C(NC(=O)C(C)N)C(C)C)c2ccccc21 (stereo not drawn) [Entry 14-102]
< 0.1 | CNC(C)C(=O)NC(C(=O)N1CCCC1Cc1c(-c2cccs2)n(CCOCCOCCOC)c2cc(F)ccc12)C(C)(C)C (stereo not drawn) [Entry 16-114]
0.1 to 1 | C[C@H](N)C(=O)N[C@H]1Cc2ccc(cc2)OCCCc2oc3ccccc3c2C[C@@H]2CCCN2C1=O [Entry 13-93, Tyrosine-derived Cyclic Ether]
0.1 to 1 | CNC(C)C(=O)NC(C(=O)N1CCCC1Cc1cn(CCOCCOCCOC)c2ccccc12)C1CCCCC1 (stereo not drawn) [Entry 16-111]
< 0.1 | CNC(C)C(=O)NC(C(=O)N1CCCC1Cc1c(Br)n(CCOCCOCCOC)c2cc(F)ccc12)C(C)(C)C (stereo not drawn) [Entry 16-113]
< 0.1 | CC(=O)n1cc(CC2CCCN2C(=O)C(NC(=O)C(C)N)C(C)C)c2cccc(C)c21 (stereo not drawn) [Entry 14-98]
0.1 to 1 | CNC(C)C(=O)NC(C(=O)N1CCCC1Cc1cn(C(C)=O)c2cc(F)ccc12)C(C)(C)C (stereo not drawn) [Entry 14-96]
< 0.1 | Cc1cccc2c(CC3CCCN3C(=O)C(NC(=O)C(C)N)C(C)C)c[nH]c12 (stereo not drawn) [Entry 14-100]

The remaining lines, values behind:

SMILES | Kd [µM]
CC(N)C(=O)NC(C(=O)N1CCCC1Cc1coc2ccccc12)C1CCCCC1 (stereo not drawn) [Entry 5-47] | < 0.1
CCOC(=O)CCc1oc2ccccc2c1CC1CCCN1C(=O)C(NC(=O)C(C)N)C(C)C (stereo not drawn) [Entry 10-89, 3-(3-{1-[2-(2-Amino-propionylamino)-3-methyl-butyryl]-pyrrolidin-2-ylmethyl}-benzofuran-2-yl)-propionic acid ethyl ester] | 1 to 10
CC(C)[C@H](NC(=O)[C@H](C)NC(=O)OC(C)(C)C)C(=O)N1C[C@@H](Oc2ccccc2)C[C@H]1/C=C/COc1ccc2c(c1)CCCC2 [Entry 3-16] | > 10
CC(=O)NC(C)C(=O)NC(C(=O)N1CCCC1Cc1coc2ccccc12)C(C)C (stereo not drawn) [Entry 5-65] | > 10
CNC(C)C(=O)NC(C(=O)N1CCCC1Cc1coc2ccc(Cl)cc12)C(C)C (stereo not drawn) [Entry 5-62] | < 0.1
C#CCOC(C)[C@H](NC(=O)[C@H](C)N)C(=O)N1C[C@@H](Oc2ccccc2)C[C@H]1COc1ccccc1 (stereo partly drawn) [Entry 2-7] | < 0.1
Cc1cccc(C)c1OC/C=C/[C@@H]1C[C@H](Oc2ccccc2)CN1C(=O)[C@@H](NC(=O)[C@H](C)N)C(C)C [Entry 3-22] | < 0.1
CNC(C)C(=O)NC(C(=O)N1CCCC1Cc1coc2ccccc12)C(C)C (stereo not drawn) [Entry 5-57] | < 0.1
CC(C)[C@H](NC(=O)[C@H](C)N)C(=O)N1C[C@@H](Oc2ccccc2)C[C@H]1/C=C/COc1ccccc1Br [Entry 3-9] | 0.1 to 1
CN[C@@H](C)C(=O)N[C@H](C(=O)N1C[C@@H](Oc2ccccc2)C[C@H]1Cc1coc2ccccc12)C(C)C [Entry 5-45] | < 0.1
CC(N)C(=O)NC(C(=O)N1CCCC1CCCOc1ccccc1)C(C)C (stereo not drawn) [Entry 4-37] | 1 to 10
COc1ccc2occ(CC3CCCN3C(=O)C(NC(=O)C(C)N)C(C)C)c2c1 (stereo not drawn) [Entry 7-76, 2-Amino-N-{1-[2-(5-methoxy-benzofuran-3-ylmethyl)-pyrrolidine-1-carbonyl]-2-methyl-propyl}-propionamide] | 1 to 10
CC(N)C(=O)NC(C(=O)N1CCCC1CCCOc1ccccc1-c1ccccc1)C(C)C (single isomer, unassigned) [Entry 4-36] | > 10
CCC(N)C(=O)NC(C(=O)N1CCCC1Cc1coc2ccccc12)C(C)C (stereo not drawn) [Entry 5-58] | 0.1 to 1
COc1ccccc1OC/C=C/[C@@H]1C[C@H](Oc2ccccc2)CN1C(=O)[C@@H](NC(=O)CN)C(C)C [Entry 3-19] | > 10
CC(C)C(NC(=O)CN)C(=O)N1CC(Oc2ccccc2)CC1Cc1coc2ccccc12 (stereo not drawn) [Entry 5-52] | 1 to 10
CC(C)c1ccccc1OCCC[C@@H]1C[C@H](Oc2ccccc2)CN1C(=O)[C@@H](NC(=O)[C@H](C)N)C(C)C [Entry 4-30] | 0.1 to 1
CC(N)C(=O)NC(C(=O)N1CCCC1Cc1coc2ccc(-c3ccncc3)cc12)C(C)C (stereo not drawn) [Entry 8-78] | 0.1 to 1

SMILES | Kd [µM]
Cc1ccc(S(=O)(=O)n2cc(C[C@@H]3CCCN3C(=O)[C@@H](NC(=O)[C@H](C)N)C(C)C)c3ccccc32)cc1 [Entry 15-107, 2S-Amino-N-(2-methyl-1S-{2S-[1-(toluene-4-sulfonyl)-1H-indol-3-ylmethyl]-pyrrolidine-1-carbonyl}-propyl)-propionamide] | < 0.1
CC(C)Oc1ccccc1OCCC[C@@H]1C[C@H](Oc2ccccc2)CN1C(=O)[C@@H](NC(=O)[C@H](C)N)C(C)C [Entry 4-29] | 0.1 to 1
CC(C)[C@H](NC(=O)[C@H](C)N)C(=O)N1C[C@@H](Oc2ccccc2)C[C@H]1/C=C/COc1ccccc1-c1ccccc1 [Entry 3-20] | 0.1 to 1
CC(NC=O)C(=O)NC(C(=O)N1CCCC1Cc1coc2ccccc12)C(C)C (stereo not drawn) [Entry 5-67] | > 10
CC(N)C(=O)NC(C(=O)N1CCCC1Cc1c(CCC(=O)O)oc2ccccc12)C(C)C (stereo not drawn) [Entry 10-90] | 0.1 to 1
CCc1ccccc1OCCC[C@H]1C[C@H](Oc2ccccc2)CN1C(=O)[C@@H](NC(=O)[C@H](C)N)C(C)C [Entry 4-25, 2S-Amino-N-(1S-{2S-[3-(2-ethyl-phenoxy)-propyl]-4S-phenoxy-pyrrolidine-1-carbonyl}-2-methyl-propyl)-propionamide] | 0.1 to 1
CC(N)C(=O)NC(C(=O)N1CCCC1Cc1c(Br)oc2ccccc12)C(C)C (stereo not drawn) [Entry 9-80] | 0.1 to 1
CC(N)C(=O)NC(C(=O)N1CCCC1Cc1coc2ccc(Cl)cc12)C(C)C (stereo not drawn) [Entry 5-61] | < 0.1
CC[C@H](NC(=O)[C@@H](N)CC)C(=O)N1C[C@@H](Oc2ccccc2)C[C@H]1Cc1coc2ccccc12 [Entry 5-55] | 0.1 to 1
CC(C)C(NC(=O)C1CCCN1)C(=O)N1CCCC1Cc1coc2ccccc12 (stereo not drawn) [Entry 5-74] | > 10
CC[C@H](N)C(=O)N[C@H](C(=O)N1C[C@@H](Oc2ccccc2)C[C@H]1Cc1coc2ccccc12)C1CCCCC1 [Entry 5-56] | 0.1 to 1
CC(N)C(=O)NC(C(=O)N1CCCC1COc1ccccc1-c1ccccc1)C(C)C (stereo not drawn) [Entry 2-6] | 0.1 to 1
CC(N)C(=O)NC(C(=O)N1CCCC1Cc1c(-c2cnccn2)oc2ccccc12)C(C)C (stereo not drawn) [Entry 9-86] | < 0.1
CC(C)[C@H](NC(=O)[C@H](C)N)C(=O)N1CCC[C@H]1Cc1c(-c2ccncc2)oc2ccccc12 [Entry 9-81, 2S-Amino-N-{2-methyl-1S-[2S-(2-pyridin-4-yl-benzofuran-3-ylmethyl)-pyrrolidine-1-carbonyl]-propyl}-propionamide] | < 0.1
CN[C@@H](C)C(=O)N[C@H](C(=O)N1C[C@@H](Oc2ccccc2)C[C@H]1/C=C/COc1cccc(Cl)c1Cl)C(C)C [Entry 3-13] | 0.1 to 1
CC(N)C(=O)NC(C(=O)N1CCCC1Cc1c(-c2cccnc2)oc2ccccc12)C(C)C (stereo not drawn) [Entry 9-82] | 0.1 to 1
CC(N)C(=O)NC1CCCCNC(=O)CCc2oc3ccccc3c2CC2CCCN2C1=O (stereo not drawn) [Entry 12-92] | 1 to 10

system: SK-OV-3 cells; experiment: MTT cell growth/survival assay; format: cell-based; settings: Homo sapiens, 72 hrs incubation, drug concentration that results in 50% cell survival
Procedure: The MTT assay is an example of an assay that has been used for measuring cell growth as previously described (Hansen, M. B., Nielsen, S. E., and Berg, K. J. Immunol. Methods 1989, 119, 203-210) and incorporated herein by reference in its entirety. Briefly, SK-OV-3 cells were seeded in 96-well plates in McCoy's medium containing 10% fetal bovine serum […] (20,000 per well) and incubated overnight at 37° C. Next day, test compounds were added at various concentrations typically from about 10 to about 0.0001 μM and the plates were incubated at 37° C. for an additional 72 hrs. This incubation time was optimal for measuring inhibitory effects of different analogs. 50 microliters of 5 mg/mL MTT reagent to each well was added and the plates were incubated at 37° C. for 3 hours. At the end of incubation period, 50 microliters of DMSO was added to each well to dissolve cells and the optical density (OD) of the wells was measured with a microplate reader (Victor^2 1420, Wallac, Finland) at 535 nm. Cell survival (CS) was calculated by the following equation: CS=(OD treated well/mean OD control wells)×100%
The EC50, defined as the drug concentration that results in 50% CS, was derived by calculating the point where the dose-response curve crosses the 50% CS point using GraphPad Prism.

SMILES | EC50 [µM]
CNC(C)C(=O)NC(C(=O)N1CCCC1Cc1cn(CCOCCOCCOC)c2cc(F)ccc12)C1CCCCC1 (stereo not drawn) [Entry 16-109, N-{1-Cyclohexyl-2-[2-(6-fluoro-1-{2-[2-(2-methoxy-ethoxy)-ethoxy]-ethyl}-1H-indol-3-ylmethyl)-pyrrolidin-1-yl]-2-oxo-ethyl}-2-methylamino-propionamide] | 0.06 ± 0.026
CNC(C)C(=O)NC(C(=O)N1CCCC1Cc1c[nH]c2cc(F)ccc12)C1CCCCC1 (stereo not drawn) [Entry 14-104] | 0.515 ± 0.093
